PubChem BioAssay AID2060609 (Molecular Pharmacology Branch, DTP, NCI, 2025)

Test system: 855422-203-R-J1-PDC complex spheroids, viability
Test: Anticancer human tumor 855422-203-R-J1-PDC patient-derived bladder carcinoma cell line growth inhibition [CLK]
Conditions: for IC50: curve of first compound; for viability, T/C: stronger effect = lower value
Method in brief: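 Multi-cell-type spheroids combined patient-derived tumor cells with HUVEC endothelial cells and human mesenchymal stem cells. Paired agents were dosed in half-log steps down from about clinical Cmax, or from 10 microM where Cmax was unknown.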
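Also: spheroids exposed to drugs for seven days before readout.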
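For viability, T/C in this document: 100% = DMSO vehicle control wells.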

SMILES: COc1ccc([C@@H](O)c2cc(-c3ncnc4cc(N5CCOCC5)ccc34)c(F)cc2Cl)nn1 + CNC(=O)c1ccc(Nc2nc(OC3CCCC3)c3c(-c4ccc5nc(C)oc5c4)c[nH]c3n2)c(OC)c1
- IC50 (second compound 0.0316 µM): 5.74 µM
- IC50 (second compound 0.1 µM): 1.46 µM
- IC50 (second compound 0.316 µM): < 0.0316 µM
- IC50 (second compound 1 µM): < 0.0316 µM
- IC50 (second compound 3.16 µM): < 0.0316 µM
- IC50 (second compound 10 µM): < 0.0316 µM
- viability, T/C (second compound 0.0316 µM, first compound 0.0316 µM): 78.5%
- viability, T/C (second compound 0.0316 µM, first compound 0.1 µM): 118%
- viability, T/C (second compound 0.0316 µM, first compound 0.316 µM): 95.2%
- viability, T/C (second compound 0.0316 µM, first compound 1 µM): 82.7%
- viability, T/C (second compound 0.0316 µM, first compound 3.16 µM): 71.8%
- viability, T/C (second compound 0.0316 µM, first compound 10 µM): 31.1%
- viability, T/C (second compound 0.1 µM, first compound 0.0316 µM): 55.8%
- viability, T/C (second compound 0.1 µM, first compound 0.1 µM): 55.2%
- viability, T/C (second compound 0.1 µM, first compound 0.316 µM): 44.4%
- viability, T/C (second compound 0.1 µM, first compound 1 µM): 47.9%
- viability, T/C (second compound 0.1 µM, first compound 3.16 µM): 48.9%
- viability, T/C (second compound 0.1 µM, first compound 10 µM): 22.9%
- viability, T/C (second compound 0.316 µM, first compound 0.0316 µM): 24%
- viability, T/C (second compound 0.316 µM, first compound 0.1 µM): 23.9%
- viability, T/C (second compound 0.316 µM, first compound 0.316 µM): 16.8%
- viability, T/C (second compound 0.316 µM, first compound 1 µM): 19.2%
- viability, T/C (second compound 0.316 µM, first compound 3.16 µM): 16.3%
- viability, T/C (second compound 0.316 µM, first compound 10 µM): 12.3%
- viability, T/C (second compound 1 µM, first compound 0.0316 µM): 23.3%
- viability, T/C (second compound 1 µM, first compound 0.1 µM): 24.6%
- viability, T/C (second compound 1 µM, first compound 0.316 µM): 18.3%
- viability, T/C (second compound 1 µM, first compound 1 µM): 17.4%
- viability, T/C (second compound 1 µM, first compound 3.16 µM): 19.5%
- viability, T/C (second compound 1 µM, first compound 10 µM): 12.1%
- viability, T/C (second compound 3.16 µM, first compound 0.0316 µM): 17.7%
- viability, T/C (second compound 3.16 µM, first compound 0.1 µM): 17.7%
- viability, T/C (second compound 3.16 µM, first compound 0.316 µM): 16.3%
- viability, T/C (second compound 3.16 µM, first compound 1 µM): 22.1%
- viability, T/C (second compound 3.16 µM, first compound 3.16 µM): 16.6%
- viability, T/C (second compound 3.16 µM, first compound 10 µM): 12.4%
- viability, T/C (second compound 10 µM, first compound 0.0316 µM): 22.1%
- viability, T/C (second compound 10 µM, first compound 0.1 µM): 20.9%
- viability, T/C (second compound 10 µM, first compound 0.316 µM): 25.1%
- viability, T/C (second compound 10 µM, first compound 1 µM): 18.4%
- viability, T/C (second compound 10 µM, first compound 3.16 µM): 14.4%
- viability, T/C (second compound 10 µM, first compound 10 µM): 8.91%
